In publication PMC6259646, “Role of Intestinal Hydrolase in the Absorption of Prenylated Flavonoids Present in Yinyanghuo” (Molecules, 2011):

Key:
rat intestine = test: four-site single-pass perfused rat intestinal model: effective permeability and metabolite formation; assay type: in vivo; settings: for metabolites detected in the perfusate: HPLC; for identity of intestinal metabolite: rat intestinal perfusate, LC/MS/MS, loss of saccharide group at C7
Text: Male Sprague-Dawley rats weighing between 250 and 300 g were obtained from the SLEK Lab Animal Center of Shanghai (Shanghai, China). The rats were fed with water and a standard diet. The rats were fasted overnight before the day of the experiment.
The surgical procedures were approved by the Animal Ethics Committee of Jiangsu Provincial Academy of Chinese Medicine. Anesthesia was induced by an i.m. injection of urethane (0.5 g/mL). After the rat was anesthetized, it was put over a heating blanket and under a heating lamp to keep its normal body temperature. We then cannulated four segments of the intestine, each with two cannulae. After each cannula was inserted, it was secured with a sterilized black suture before the next cannula was inserted and secured. First, the duodenum was located as the intestinal segment immediately adjacent to the stomach, and two cannulae at 10 cm apart were inserted into two ends of the duodenum and secured with suture. Next, the jejunum was located below the duodenum, and the first cannula was inserted at 4 cm below the duodenal outlet cannula, whereas the second cannula was inserted at 10 cm below the first jejunal cannula. Then, the terminal ileum was located by identifying the ileocecal junction of the rat intestine. The outlet cannula was inserted into the ileum at 2 cm above the junction, and the inlet cannula was inserted 10 cm above the outlet cannula. Lastly, the colon inlet cannula was inserted into the colon at 2 cm below the junction, and the outlet cannula was inserted through the anus. After cannulation, the small intestinal segments were placed carefully into the abdominal cavity, avoiding crimping or kinking of the segments. The incision was then covered by a normal saline-wetted paper towel. A piece of plastic wrap was put on the towel to keep the intestinal segments moist. Additionally, caution was also exercised to keep the inlet and outlet cannulate at the same height to avoid gravitational flow. To keep the temperature of the perfusate constant, the inlet cannulate was kept warm by a 37°C circulating water bath.
This is a single-pass perfusion method. Four segments of the intestine (duodenum, upper jejunum, terminal ileum, and colon) were perfused simultaneously with a perfusate containing the compound of interest using an infusion pump (Harvard Apparatus, Cambridge, MA, USA) at a flow rate of 0.2 mL/min. After a 30-min washout period, which is usually sufficient to achieve the steady-state absorption, four samples were collected from the outlet cannulae every 30 min afterward. After perfusion, the length of the intestine was measured as described previously The outlet concentrations of the test compounds in the luminal perfusate were determined by HPLC or LC/MS/MS.
The samples were separated on a Zorbax SB-C18 column (250 mm × 4.6 mm, 5 μm, Agilent). The mobile phase consisted of acetonitrile (A) and water containing 0.1% acetic acid (B). […] For MS analysis, the electro spray ionization (ESI) source was operated in the positive ion mode.
In the perfused rat intestinal model, Peff^* (effective permeability) is a representation of the intestinal membrane permeability. Peff^* of the compounds are calculated using the following equations: Peff^∗=1−Cm/Co/4Gz where Co and Cm are inlet and outlet concentrations, respectively; Gz, or Graetz number ( Gz=πDL/2Q ), is a scaling factor that incorporates flow rate (Q), intestinal length (L), and diffusion coefficients (D) to make the permeability dimensionless. Cm was adjusted for water flux, data points were discarded if the water flux exceeded 0.5%/cm of intestine.

[1] = system: lactase phlorizin hydrolase; test: co-perfusion with LPH inhibitor gluconolactone in perfused rat intestinal model: inhibition of hydrolysis; assay type: in vivo; settings: 10 μM flavonoid co-perfused with gluconolactone (40μM)
Protocol: This is a single-pass perfusion method. […] After a 30-min washout period, which is usually sufficient to achieve the steady-state absorption, four samples were collected from the outlet cannulae every 30 min afterward. After perfusion, the length of the intestine was measured as described previously The outlet concentrations of the test compounds in the luminal perfusate were determined by HPLC or LC/MS/MS. […] The total gluconolactone concentration was 40μM. After perfusion, perfusates were collected and determined by HPLC. […] The accuracy and precision were greater than 98%.

Row | metabolites detected in the perfusate (rat intestine) | hydrolysis inhibition rate, colon [1] | hydrolysis inhibition rate, duodenum [1] | hydrolysis inhibition rate, ileum [1] | hydrolysis inhibition rate, jejunum [1] | identity of intestinal metabolite (rat intestine) | Structure (SMILES)
1 | one metabolite | 14% | 55% | 21% | 26% | sagittatoside A | COc1ccc(-c2oc3c(CC=C(C)C)c(OC4OC(CO)C(O)C(O)C4O)cc(O)c3c(=O)c2OC2OC(C)C(O)C(O)C2OC2OC(CO)C(O)C(O)C2O)cc1 (stereo not shown) [epimedin A]
2 | one metabolite | 35% | 42% | 52% | 40% | 2″-O-rhamnosylicariside II | COc1ccc(-c2oc3c(CC=C(C)C)c(OC4OC(CO)C(O)C(O)C4O)cc(O)c3c(=O)c2OC2OC(C)C(O)C(O)C2OC2OC(C)C(O)C(O)C2O)cc1 (stereo not shown) [epimedin C]

The remaining lines, values behind:

Row | Structure (SMILES) | metabolites detected in the perfusate (rat intestine) | hydrolysis inhibition rate, colon [1] | hydrolysis inhibition rate, duodenum [1] | hydrolysis inhibition rate, ileum [1] | hydrolysis inhibition rate, jejunum [1] | identity of intestinal metabolite (rat intestine)
3 | COc1ccc(-c2oc3c(CC=C(C)C)c(O)cc(O)c3c(=O)c2O[C@@H]2O[C@@H](C)[C@H](O)[C@@H](O)[C@H]2O)cc1 [baohuoside I] | no metabolites were detected | – | – | – | – | –
4 | COc1ccc(-c2oc3c(CC=C(C)C)c(OC4OC(CO)C(O)C(O)C4O)cc(O)c3c(=O)c2OC2OC(C)C(O)C(O)C2OC2OCC(O)C(O)C2O)cc1 (stereo not shown) [epimedin B] | one metabolite | 22% | 42% | 74% | 40% | sagittatoside B
5 | COc1ccc(-c2oc3c(CC=C(C)C)c(O[C@@H]4O[C@H](CO)[C@@H](O)[C@H](O)[C@H]4O)cc(O)c3c(=O)c2O[C@@H]2O[C@@H](C)[C@H](O)[C@@H](O)[C@H]2O)cc1 [icariin] | two metabolites | 46% | 62% | 40% | 50% | baohuoside I
